Laboratory results published in patent US10111871B2, “Nanoparticle drug delivery system and method of treating cancer and neurotrauma” (Northeastern University, priority 2013, dated 2018).

Key:
FKO1 = test: Delayed viability assay after radiosensitization (modified clonogenic assay); format: cell-based, mouse
Experimental: (§1) In vitro characterization of NanoOlaparib: For in vitro studies we used PTEN deficient human prostate cancer cell lines PC3 (ATCC), LNCaP (ATCC) and mouse cell line FKO1. […] Briefly, a complete media was formulated by adding 10% Fetal Bovine Serum from HyClone (FBS) to F12-k (PC3), RPMI (LNCaP) and DMEM supplemented with growth factors such as Bovine Pituitary Extract, (Life Technologies cat #: 13028014), final conc. 25ug/ml, Insulin, (Sigma Aldrich Cat#:16634-50 mg), final conc. 5ug/ml, EGF (Life Technologies Cat#:PHG0311), final conc 6 ng/ml (FKO1). The FKO1 cells were grown on collagen-coated plates (VWR Cat#: 47743-656). CellTiter-Glo® luminescent cell viability reagent was ordered from Promega, CA Cat # G7570. Clonogenic assay kit was bought from BioPioneer, CA, Cat # CODE: CA-001.
(§2) Irradiation for in vitro studies: Radiation was delivered using the Small Animal Radiation Research Platform (SARRP) at DFCI, a gantry mounted x-ray tube and flat panel imager capable of fixed field irradiation, rotation therapy and cone-beam CT (CBCT) imaging. […] Here the radiation doses were optimized to 2 Gy (5.6 Gy/min for 22 sec) and 4 Gy (5.5 Gy/min for 44 sec) to irradiate the cells, which were pretreated with Olaparib/NanoOlaparib for 24 hrs.
(§3) Delayed viability assay after radiosensitization: Based on several studies, we modified the general clonogenic assay protocol to determine the long term effects of radio-sensitization with olaparib and NanoOlaparib (42, 43). The percent cell viability was determined using the modified clonogenic assay at 2 Gy and 4 Gy doses. Irradiation was carried out in prostate cancer cell lines, LNCaP PC3 and FKO1 as described above. […] The cell density was determined using automated cell counter and 10,000 and 20,000 cells from each treatment group was calculated and seeded in fresh 6 well plates. […] The stain was then dissolved in acetic acid to quantify the effect of Olaparib and NanoOlaparib treatments for all the cell lines.

PC3 [1] = test: as above; format: cell-based, human
Experimental: as §1, with “Clonogenic assay kit was bought from BioPioneer, CA, Cat # CODE: CA-001.” left out
as §3, with “doses.” for “doses. Irradiation was carried out in prostate cancer cell lines, LNCaP PC3 and FKO1 as described above.”

PC3 cells = test: Nuclear PARP cleavage assay by confocal microscopy; format: cell-based, human; details: PC3, DAPI
Text: as §2
(§4) Nuclear localization and early DNA damage determination: To assess the early DNA Damage and PARP inhibition pathway damage, including PARP, PARylation, PARP cleavage and yH2AX in the cell lines to various treatment conditions, the prostate cancer cell lines were seeded at 100,000 cells, exposed to 20 μM Olaparib/NanoOlaparib, with and without radiation for both immunoflorescence (confocal) and western blotting assays. PARP-1 is a 116 kDa nuclear protein which is strongly activated by DNA strand breaks. During apoptosis, proteins such as caspase-3 and -7, cleave the PARP to yield an 85 kDa and a 25 kDa fragment. The nuclear localization and extent of apoptosis was determined using nuclear PARP cleavage assay and western blotting was used to determine the relative cellular concentrations of PARP, PAR, and yH2AX for various treatments on all the cell lines. Briefly, 105 cells/well were seeded in a 6 well plate on sterile coverslips for 24 hours before adding the drugs. The cells were incubated with the drugs for either 4 hr s after which they were irradiated. The cells thus treated were incubated at 37° C. for 1 hour before fixing them for further analysis.
(§5) Nuclear PARP Cleavage assay using confocal microscopy: The cells were fixed with 1% formalin and kept at 37° C. for 15 min. The coverslips were given three PBS washings (3 min each) until the cells were free of fixing agent. The cells were rehydrated using PBS with 0.5% tween 80 for 30 min, washed with buffer and incubated with Anti-PARP Cleavage Site (214/215) specific antibody, FITC Conjugate (Life technologies, NY, Cat #44-699) for 1 hour. This antibody specifically recognizes the 85 kDa fragment of cleaved PARP and can be used as a marker for detecting apoptotic cells. The coverslips were washed twice and were mounted onto the glass slide using and the edges were sealed using nail polish. The images were taken using an Olympus FV1000, multi-photon confocal microscope (Olympus America, Inc., Central Valley, Calif.). The excitation filters used for imaging cleaved PARP (FITC) and DAPI were Ex-488, 405 respectively. The emission filters were set at 530, 458 nm for FITC and DAPI respectively. All the images were captured with a 60× objective. […] Statistical significance was analyzed using two way ANOVA and Dunnet's multiple comparison tests in Graph Pad Prism.

LNCaP cells = test: Nuclear PARP cleavage assay by confocal microscopy; format: cell-based, human
Text: as §2, §4, §5

FKO1 cells = test: Nuclear PARP cleavage assay by confocal microscopy; format: cell-based, mouse; details: FKO1, DAPI
Text: as §2
Nuclear localization and early DNA damage determination: To assess the early DNA Damage and PARP inhibition pathway damage, including PARP, PARylation, PARP cleavage and yH2AX in the cell lines to various treatment conditions, the prostate cancer cell lines were seeded at 100,000 cells, exposed to 20 μM Olaparib/NanoOlaparib, with and without radiation for both immunoflorescence (confocal) and western blotting assays. […] The nuclear localization and extent of apoptosis was determined using nuclear PARP cleavage assay and western blotting was used to determine the relative cellular concentrations of PARP, PAR, and yH2AX for various treatments on all the cell lines. […]
Nuclear PARP Cleavage assay using confocal microscopy: The cells were fixed with 1% formalin and kept at 37° C. for 15 min. […] Statistical significance was analyzed using two way ANOVA and Dunnet's multiple comparison tests in Graph Pad Prism.

PC3 [2] = test: Synergism with irradiation, combination index by CalcuSyn; format: cell-based, human; details: PC3, 20 μM with irradiation
Experimental: Determination of Synergism using CalcuSyn: The fraction of cells affected (Fa) in response to Olaparib and Nanoolaparib treatment was determined as discussed in above sections. The fraction of cells affected by irradiation alone and the combination therapy was determined by the delayed cell viability assay and these values were utilized to perform synergyism analysis. A non-constant ratio combination design as formulated by CalcuSyn (Biosoft) based on the Chou-Talalay isobologram equation was used to calculate the Combination index (44). All the cells were exposed to 20 μM Olaparib or NanoOlaparib with increasing doses of Irradiation. The CI values were generated from isobolograms. All assays were performed in duplicates. Bars represent the Combination index (CI) of Olaparib and Nanoolaparib on LNCaP, PC3 and FKO1 in combinations with irradiation. The CI values generated for all the treatment groups are reported in the bar graphs are derived from duplicate experiments. The extent of synergism is postulated as indicated by the Chou-Talalay method.

[3] = HPLC analysis of encapsulated Olaparib (loading efficiency); format: physicochemical; details: across the batches
Experimental: HPLC analysis: The concentration of Olaparib encapsulated was determined using HPLC. The mobile phase was optimized to be methanol: water (64:36) run on a reverse phase C18 column (SUPELCO™), and the Olaparib was detected at 207 nm. All the doses used in the following studies were derived from the standard curve obtained using a working range of serially diluted Olaparib solutions in mobile phases as described above. The loading efficiency across the batches was around 80-90%.

O=C(c1cc(Cc2n[nH]c(=O)c3ccccc23)ccc1F)N1CCN(C(=O)C2CC2)CC1 [Olaparib, 4-(3-(1-(cyclopropanecarbonyl)piperazine-4-carbonyl)-4-fluorobenzyl)phthalazin-1(2H)-one]
cell kill (FKO1; FKO1, 20 uM combined with 4 Gy radiation): 82%
cell death (FKO1; FKO1, 20 uM with 2 Gy): 68%
cell death, monotherapy (FKO1; FKO1, 20 uM, no irradiation): 53%
cell death (PC3 [1]; PC3, 20 uM with 2 Gy): 80%
cell death, monotherapy (PC3 [1]; PC3, 20 uM, no irradiation): 78%
change in nuclear size (PC3 cells): No significant change
location of cleaved PARP (LNCaP cells; 1 hr post irradiation): predominantly found in the perinuclear region
increase in nuclear area (LNCaP cells; DAPI, 20 μM): 3 fold
increase in cleaved PARP upon monotherapy (LNCaP cells; no irradiation, 20 μM): 20 fold
change in nuclear size (FKO1 cells): No significant change
combinatorial effect of drug and irradiation (CI) (PC3 [2]): additive effect
loading efficiency [3]: 80-90%
